pKi: −log10 of the molar value.

For one assay, the target named is T1, JAK3 (Homo sapiens, UniProt P52333).
T1 sequence (P52333 1-1124): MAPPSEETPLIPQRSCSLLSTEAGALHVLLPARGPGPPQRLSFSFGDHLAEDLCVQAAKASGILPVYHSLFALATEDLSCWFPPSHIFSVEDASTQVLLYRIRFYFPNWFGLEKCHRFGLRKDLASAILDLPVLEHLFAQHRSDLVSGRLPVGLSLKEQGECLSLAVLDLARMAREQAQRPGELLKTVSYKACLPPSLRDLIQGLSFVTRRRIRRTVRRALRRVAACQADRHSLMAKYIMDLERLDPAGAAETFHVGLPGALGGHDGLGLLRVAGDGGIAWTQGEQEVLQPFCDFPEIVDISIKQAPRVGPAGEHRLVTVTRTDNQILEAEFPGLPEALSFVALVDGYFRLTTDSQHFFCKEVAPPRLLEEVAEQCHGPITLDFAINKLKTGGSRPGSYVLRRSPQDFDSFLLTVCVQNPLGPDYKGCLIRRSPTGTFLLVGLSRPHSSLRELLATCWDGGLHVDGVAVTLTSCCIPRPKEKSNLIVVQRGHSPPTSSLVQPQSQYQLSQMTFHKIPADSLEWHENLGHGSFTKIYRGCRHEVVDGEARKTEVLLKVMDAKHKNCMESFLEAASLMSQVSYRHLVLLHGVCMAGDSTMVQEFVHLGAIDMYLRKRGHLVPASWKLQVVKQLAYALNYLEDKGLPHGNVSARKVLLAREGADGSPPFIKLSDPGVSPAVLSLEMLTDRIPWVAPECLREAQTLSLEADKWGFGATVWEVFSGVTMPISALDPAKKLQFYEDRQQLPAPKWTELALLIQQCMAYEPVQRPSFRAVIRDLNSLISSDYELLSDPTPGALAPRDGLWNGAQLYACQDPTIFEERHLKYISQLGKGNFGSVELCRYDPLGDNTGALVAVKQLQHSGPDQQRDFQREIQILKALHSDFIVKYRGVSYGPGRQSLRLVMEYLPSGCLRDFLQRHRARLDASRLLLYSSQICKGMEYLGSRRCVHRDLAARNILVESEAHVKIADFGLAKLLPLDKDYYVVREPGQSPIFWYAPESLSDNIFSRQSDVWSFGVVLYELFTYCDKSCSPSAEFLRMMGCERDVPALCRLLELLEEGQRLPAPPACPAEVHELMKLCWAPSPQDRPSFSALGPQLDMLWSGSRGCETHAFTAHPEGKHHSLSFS
As to the kind of experiment: JAK3 Inhibition Assay. Conditions: 1 μM poly(Glu)4Tyr, 5 μM ATP, 1 nM JAK3, 25° C.; read-out: JAK3 enzyme inhibition data (Ki). In kind it is biochemical. Summed up:
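Radiometric JAK3 (1 nM) reaction with 5 μM [33P]ATP and 1 μM poly(Glu)4Tyr in HEPES pH 7.4 buffer, run for 20 min at 25 °C. Reactions were stopped with TCA and filter-captured, and 33P incorporation was counted; values reported as Ki.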

The target in a further assay is JAK-2 enzyme (Homo sapiens, UniProt O60674). As to the kind of experiment: JAK2 Inhibition Assay. In kind it is biochemical. Conditions: 15 μM poly(Glu)4Tyr, 12 μM ATP, 25° C. Summed up:
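JAK2 kinase in HEPES pH 7.4 buffer with MgCl2, DTT, NaCl and BSA; final 15 μM poly(Glu)4Tyr and 12 μM [33P]ATP. Enzyme added to start, 20 min at 25 °C, TCA stop, filter capture and scintillation count of 33P incorporation; Ki values.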

JAK-2 enzyme, sequence (O60674 whole entry, species assumed): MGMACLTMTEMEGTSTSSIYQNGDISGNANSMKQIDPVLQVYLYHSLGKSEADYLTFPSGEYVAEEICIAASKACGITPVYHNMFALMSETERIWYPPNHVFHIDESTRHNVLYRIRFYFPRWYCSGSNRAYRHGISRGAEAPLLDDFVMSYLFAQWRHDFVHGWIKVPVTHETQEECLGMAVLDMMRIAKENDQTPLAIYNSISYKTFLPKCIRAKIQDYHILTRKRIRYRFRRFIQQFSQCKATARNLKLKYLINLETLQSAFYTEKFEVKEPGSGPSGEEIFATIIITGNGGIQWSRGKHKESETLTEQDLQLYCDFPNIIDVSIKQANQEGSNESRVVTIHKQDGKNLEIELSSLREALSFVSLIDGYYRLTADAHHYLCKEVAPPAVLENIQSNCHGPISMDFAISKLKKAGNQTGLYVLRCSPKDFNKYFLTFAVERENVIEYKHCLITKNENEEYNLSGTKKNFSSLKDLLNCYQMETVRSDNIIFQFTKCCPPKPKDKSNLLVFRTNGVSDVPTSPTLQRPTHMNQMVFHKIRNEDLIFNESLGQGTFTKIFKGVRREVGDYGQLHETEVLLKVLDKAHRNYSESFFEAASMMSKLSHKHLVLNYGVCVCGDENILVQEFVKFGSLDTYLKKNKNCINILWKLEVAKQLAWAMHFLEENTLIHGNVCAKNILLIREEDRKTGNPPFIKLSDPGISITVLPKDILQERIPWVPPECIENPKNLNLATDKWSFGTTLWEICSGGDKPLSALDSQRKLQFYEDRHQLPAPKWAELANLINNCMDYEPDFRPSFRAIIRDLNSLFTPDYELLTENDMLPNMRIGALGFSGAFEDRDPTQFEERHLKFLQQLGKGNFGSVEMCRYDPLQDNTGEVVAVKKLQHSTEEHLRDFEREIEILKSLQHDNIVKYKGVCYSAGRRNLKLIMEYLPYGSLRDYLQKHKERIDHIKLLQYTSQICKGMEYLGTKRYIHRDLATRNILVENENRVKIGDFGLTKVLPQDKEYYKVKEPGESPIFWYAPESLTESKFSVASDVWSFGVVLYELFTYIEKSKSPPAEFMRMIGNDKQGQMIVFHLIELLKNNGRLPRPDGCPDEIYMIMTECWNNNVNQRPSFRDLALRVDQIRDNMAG

On to `COC(=O)N1CCC(C(=O)Nc2nc(-c3ncnc4[nH]ccc34)cs2)CC1` [Compound 171], for which the pKi at JAK3 and at JAK-2 enzyme was above 7.00 in each case.
In the case of `Cn1cc(-c2ncnc3[nH]ccc23)cc1C(=O)N(CCC(F)(F)F)CC1CC1` [Compound 225], the pKi at JAK3 and at JAK-2 enzyme was above 7.00 each time.
Consider `N#CCN(Cc1cccc(Cl)c1)C(=O)c1cc(-c2ncnc3[nH]ccc23)c[nH]1` [Compound 113], for which the pKi on JAK3 and on JAK-2 enzyme was above 7.00 in each case.
As to `N#CC1CCCN1C(=O)c1cc(-c2ncnc3[nH]ccc23)c[nH]1` (stereo not shown) [Compound 52], the pKi was 6.30 to 7.00 on JAK3 and above 7.00 at JAK-2 enzyme.
As for `CCCCN(CC)C(=O)c1cc(-c2ncnc3[nH]cc(Cl)c23)c[nH]1` [Compound 198], the pKi on JAK3 and on JAK-2 enzyme was above 7.00 in each case.
Regarding `CCCCN(CC#N)C(=O)c1cc(-c2ncnc3[nH]ccc23)c[nH]1` [Compound 19], the pKi at JAK3 and on JAK-2 enzyme was above 7.00 in each case.
Take `CC(C)CCC(=O)Nc1nc(-c2ncnc3[nH]ccc23)cs1` [Compound 72]: the pKi at JAK3 and on JAK-2 enzyme was above 7.00 in each case.
On to `C=CCN(C(=O)c1ccc(-c2ncnc3[nH]ccc23)o1)[C@H](C)c1ccccc1` [Compound 220], for which the values for the pKi on JAK3 and at JAK-2 enzyme were 6.30 to 7.00 and above 7.00, respectively.
For `C[C@@H]1CC[C@@H](C)N1C(=O)c1ccc(-c2ncnc3[nH]ccc23)o1` [Compound 126], the pKi on JAK3 and at JAK-2 enzyme was above 7.00 each time.
As to `CC(C)(C)CC(=O)Nc1nc(-c2ncnc3[nH]ccc23)cs1` [Compound 66], the pKi at JAK3 and at JAK-2 enzyme was above 7.00 in each case.
`N#CCN(Cc1ccccc1)C(=O)c1ccc(-c2ncnc3[nH]ccc23)o1` [Compound 124]: the pKi was 6.30 to 7.00 on JAK3 and above 7.00 at JAK-2 enzyme.
In the same order, the values of `O=C(c1cc(-c2ncnc3[nH]ccc23)c[nH]1)N(CC1CC1)CC(F)(F)F` [Compound 109] are above 7.00 and above 7.00.
With `COC1CCC(C(=O)Nc2nc(-c3ncnc4[nH]ccc34)cs2)CC1` (stereo not shown) [Compound 117], the pKi is 6.30 to 7.00 on JAK3 and above 7.00 at JAK-2 enzyme.
In the same order, the values of `CC1CC1C(=O)Nc1nc(-c2ncnc3[nH]ccc23)cs1` (stereo not shown) [Compound 58] are above 7.00 and above 7.00.
In the same order, the values of `O=C1CCC(C(=O)Nc2nc(-c3ncnc4[nH]ccc34)cs2)CC1` [Compound 65] are above 7.00 and above 7.00.
For the molecule `CC1CCCN1C(=O)c1ccc(-c2ncnc3[nH]ccc23)o1` (stereo not shown) [Compound 218], the pKi at JAK3 is 6.30 to 7.00; at JAK-2 enzyme, above 7.00.
Turning to `CC(C(=O)NCC(F)(F)F)n1cc(-c2ncnc3[nH]ccc23)cn1` (stereo not shown) [Compound 91], the pKi at JAK3 and at JAK-2 enzyme was above 7.00 in each case.
With `N#CCCN(CCC(F)(F)F)C(=O)c1cc(-c2ncnc3[nH]cc(Cl)c23)c[nH]1` [Compound 242], the negative-log Ki (pKi) on JAK3 and on JAK-2 enzyme was above 7.00 each time.
For the molecule `CC(C(=O)NC1CC1)n1cc(-c2ncnc3[nH]ccc23)cn1` (stereo not shown) [Compound 73], the negative logarithm of the Ki (pKi) at JAK3 and at JAK-2 enzyme was 6.30 to 7.00 throughout.
Turning to `C[C@@H]1CC[C@H](C)N1C(=O)c1cc(-c2ncnc3[nH]ccc23)c[nH]1` [Compound 132], the figures for the pKi on JAK3 and at JAK-2 enzyme were 6.30 to 7.00 and above 7.00, respectively.
In the same order, the values of `Cn1cc(-c2ncnc3[nH]ccc23)cc1C(=O)N(CC1CCC1)CC(F)(F)F` [Compound 238] are 6.30 to 7.00 and above 7.00.
In the same order, the values of `COCCN(C)C(=O)c1cc(-c2ncnc3[nH]ccc23)cn1C` [Compound 233] are 5.30 to 6.30 and above 7.00.
In the same order, the values of `CN1CC(C(=O)Nc2nc(-c3ncnc4[nH]ccc34)cs2)CC1=O` (stereo not shown) [Compound 172] are 6.30 to 7.00 and above 7.00.
Consider `CCCC(CCC)n1cc(-c2ncnc3[nH]ccc23)cn1` [Compound 37], for which the pKi at JAK3 and on JAK-2 enzyme was above 7.00 in each case.
As for `O=C(CCC(F)(F)F)Nc1nc(-c2ncnc3[nH]ccc23)cs1` [Compound 99], the pKi on JAK3 and at JAK-2 enzyme was above 7.00 in each case.
Take `Cc1c[nH]c2ncnc(-c3c[nH]c(C(=O)N(C)CCc4ccccc4)c3)c12` [Compound 203]: the pKi at JAK3 is 6.30 to 7.00; at JAK-2 enzyme it was above 7.00.
As for `CC#CCN(CC(C)C)C(=O)c1cc(-c2ncnc3[nH]ccc23)c[nH]1` [Compound 189], the pKi on JAK3 and at JAK-2 enzyme was above 7.00 each time.
For `CCCN(C)C(=O)c1cc(-c2ncnc3[nH]ccc23)cn1C` [Compound 234], the pKi at JAK3 is 5.30 to 6.30; on JAK-2 enzyme it was above 7.00.
Regarding `O=C(c1ccc(-c2ncnc3[nH]ccc23)o1)N(CCC(F)(F)F)Cc1ccccc1` [Compound 123], the pKi at JAK3 and at JAK-2 enzyme was above 7.00 each time.
Take `C=CCN(C(=O)c1cc(-c2ncnc3[nH]ccc23)c[nH]1)C(C)c1ccccc1` (stereo not shown) [Compound 114]: the pKi at JAK3 and on JAK-2 enzyme was above 7.00 in each case.
Consider `CC(C(=O)NC1CCCC1)n1cc(-c2ncnc3[nH]ccc23)cn1` (stereo not shown) [Compound 75], for which the pKi was above 7.00 on JAK3 and 6.30 to 7.00 on JAK-2 enzyme.
Regarding `Nc1[nH]ncc1-c1ncnc2[nH]ccc12` [Compound 130], the pKi on JAK3 and at JAK-2 enzyme was 6.30 to 7.00 each time.
Consider `O=C(c1cc(-c2ncnc3[nH]cc(Cl)c23)c[nH]1)N(CCC(F)(F)F)CC1CC1` [Compound 227], for which the pKi on JAK3 and on JAK-2 enzyme was above 7.00 throughout.
In the case of `O=C(c1ccc(-c2ncnc3[nH]ccc23)o1)N(CCC(F)(F)F)C1CCCC1` [Compound 193], the pKi at JAK3 and on JAK-2 enzyme was above 7.00 in each case.
For `c1nc(-c2ccsc2)c2cc[nH]c2n1` [Compound 2], the pKi on JAK3 and on JAK-2 enzyme was 6.30 to 7.00 in each case.
`CCCn1cc(-c2ncnc3[nH]ccc23)cn1` [Compound 106]: the pKi on JAK3 was 6.30 to 7.00; on JAK-2 enzyme, above 7.00.
In the same order, the values of `CC(C)OCCNC(=O)C(C)n1cc(-c2ncnc3[nH]ccc23)cn1` (stereo not shown) [Compound 85] are 5.30 to 6.30 and 5.30 to 6.30.
Regarding `C=CCN(CC=C)C(=O)c1ccc(-c2ncnc3[nH]ccc23)o1` [Compound 217], the pKi on JAK3 and on JAK-2 enzyme was above 7.00 in each case.
Regarding `CN(C)C1CCN(C(=O)c2cc(-c3ncnc4[nH]ccc34)c[nH]2)C1` (stereo not shown) [Compound 50], the pKi at JAK3 and at JAK-2 enzyme was 5.30 to 6.30 in each case.
For `Cn1cc(-c2ncnc3[nH]ccc23)cn1` [Compound 3], the pKi on JAK3 and on JAK-2 enzyme was 6.30 to 7.00 each time.
As to `CCCC(CC)n1cc(-c2ncnc3[nH]ccc23)cn1` (stereo not shown) [Compound 94, 4-(1-(hexan-3-yl)-1H-pyrazol-4-yl)-7H-pyrrolo[2,3-d]pyrimidine], the pKi on JAK3 and at JAK-2 enzyme was above 7.00 each time.
For `C=CCN(C(=O)CC(C)C)c1nc(-c2ncnc3[nH]ccc23)cs1` [Compound 128], the pKi on JAK3 and on JAK-2 enzyme was above 7.00 in each case.
In the case of `CCC1CC[C@@H](CC)N1C(=O)c1cc(-c2ncnc3[nH]ccc23)c[nH]1` (stereo partly shown) [Compound 184], the pKi at JAK3 is 6.30 to 7.00; at JAK-2 enzyme, above 7.00.
As to `O=C(c1cc(-c2ncnc3[nH]ccc23)c[nH]1)N(CCC(F)(F)F)C1CCCC1` [Compound 188], the pKi on JAK3 is 6.30 to 7.00; at JAK-2 enzyme it was above 7.00.
In the same order, the values of `N#CCCN(Cc1ccco1)C(=O)c1cc(-c2ncnc3[nH]ccc23)c[nH]1` [Compound 135] are above 7.00 and above 7.00.
Regarding `O=C1[C@H]2CCCC[C@H]2C(=O)N1c1nc(-c2ncnc3[nH]ccc23)cs1` [Compound 181], the pKi on JAK3 and on JAK-2 enzyme was 6.30 to 7.00 throughout.
For the molecule `CS(=O)(=O)N1CCC(C(=O)Nc2nc(-c3ncnc4[nH]ccc34)cs2)CC1` [Compound 179], the pKi at JAK3 and on JAK-2 enzyme was above 7.00 in each case.

The values are drawn from patent US20090227607A1, “DEAZAPURINES USEFUL AS INHIBITORS OF JANUS KINASES” (priority 2006, published 2009).
